Results published in patent US20250235460A1, “COMBINATION THERAPY USING GLUCOSE-DEPENDENT INSULINOTROPIC POLYPEPTIDE RECEPTOR ANTAGONIST COMPOUNDS AND GLP-1 RECEPTOR AGONIST COMPOUNDS” (Pfizer Inc., priority 2024, published 2025).
pEC50: −log10 of the molar value.

Biological target: human GLP-1R (Homo sapiens, UniProt P43220, G168S)
Assay: CHO GLP-1R Clone H6 cAMP HTRF agonist assay (Assay 1, high receptor density)
Format: cell-based
Details: for pEC50: CHO GLP-1R clone H6, cAMP HTRF, geometric mean; for Emax: CHO GLP-1R clone H6, arithmetic mean, relative to saturating GLP-1 (1 μM), read-out: Assay 1 Emax (%)
Source text: In Table 5 and Table 6, assay data are presented to two (2) significant figures as the geometric mean (EC50s) and arithmetic mean (Emax) based on the number of replicates listed (Number). A blank cell means there was no data for that Example or the Emax was not calculated.

Sequence of human GLP-1R (P43220 24-463 G168S): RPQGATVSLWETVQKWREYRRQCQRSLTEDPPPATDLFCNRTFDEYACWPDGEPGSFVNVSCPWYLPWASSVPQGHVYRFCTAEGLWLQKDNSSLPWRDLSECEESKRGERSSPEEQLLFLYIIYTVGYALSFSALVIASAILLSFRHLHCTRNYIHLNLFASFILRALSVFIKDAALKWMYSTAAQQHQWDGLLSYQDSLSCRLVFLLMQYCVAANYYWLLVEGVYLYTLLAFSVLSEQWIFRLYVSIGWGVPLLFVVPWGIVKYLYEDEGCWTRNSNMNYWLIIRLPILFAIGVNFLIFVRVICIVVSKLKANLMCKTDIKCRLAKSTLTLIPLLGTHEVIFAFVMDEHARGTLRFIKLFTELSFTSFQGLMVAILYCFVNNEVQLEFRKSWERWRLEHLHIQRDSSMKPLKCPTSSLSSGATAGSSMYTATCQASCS

Row | SMILES | pEC50 | Emax [%]
1 | CN1CCC[C@@H]1Cn1c(CN2CCC(c3cccc(OCc4ccc(Cl)cc4F)n3)CC2)nc2ccc(C(=O)O)cc21 [Compound 309B, 2-[(4-{6-[(4-chloro-2-fluorobenzyl)oxy]pyridin-2-yl}piperidin-1-yl)methyl]-1-{[(2R)-1-methylpyrrolidin-2-yl]methyl}-1H-benzimidazole-6-carboxylic acid] | 6.52 | 66
2 | Cc1cc(Cn2c(CN3CCC(c4cccc(OCc5ccc(Cl)cc5F)n4)CC3)nc3ccc(C(=O)O)cc32)no1 [Compound 310B, 2-[(4-{6-[(4-chloro-2-fluorobenzyl)oxy]pyridin-2-yl}piperidin-1-yl)methyl]-1-[(5-methyl-1,2-oxazol-3-yl)methyl]-1H-benzimidazole-6-carboxylic acid] | 6.49 | 79
3 | Cn1cc(Cn2c(CN3CCC(c4cccc(OCc5ccc(Cl)cc5F)n4)CC3)nc3ccc(C(=O)O)cc32)nn1 [Compound 311B, 2-[(4-{6-[(4-chloro-2-fluorobenzyl)oxy]pyridin-2-yl}piperidin-1-yl)methyl]-1-[(1-methyl-1H-1,2,3-triazol-4-yl)methyl]-1H-benzimidazole-6-carboxylic acid] | 6.46 | 71
4 | O=C(O)c1ccc2nc(CN3CCC(c4cccc(OCc5ccc(Cl)cc5F)n4)CC3)n(Cc3cnc[nH]3)c2c1 [Compound 312B, 2-[(4-{6-[(4-chloro-2-fluorobenzyl)oxy]pyridin-2-yl}piperidin-1-yl)methyl]-1-(1H-imidazol-5-ylmethyl)-1H-benzimidazole-6-carboxylic acid] | 6.42 | 68
5 | COCCCn1c(CN2CCC(c3cccc(OCc4ccc(Cl)cc4F)n3)CC2)nc2ccc(C(=O)O)cc21 [Compound 313B, 2-[(4-{6-[(4-chloro-2-fluorobenzyl)oxy]pyridin-2-yl}piperidin-1-yl)methyl]-1-(3-methoxypropyl)-1H-benzimidazole-6-carboxylic acid] | 6.42 | 75
6 | CCn1ccnc1Cn1c(CN2CCC(c3cccc(OCc4ccc(Cl)cc4F)n3)CC2)nc2ccc(C(=O)O)cc21 [Compound 314B, 2-[(4-{6-[(4-chloro-2-fluorobenzyl)oxy]pyridin-2-yl}piperidin-1-yl)methyl]-1-[(1-ethyl-1H-imidazol-2-yl)methyl]-1H-benzimidazole-6-carboxylic acid] | 6.41 | 69
7 | O=C(O)c1ccc2nc(CN3CCC(c4cccc(OCc5ccc(Cl)cc5F)n4)CC3)n(CC3CCCOC3)c2c1 (stereo not drawn) [Compound 315B, 2-[(4-{6-[(4-chloro-2-fluorobenzyl)oxy]pyridin-2-yl}piperidin-1-yl)methyl]-1-(tetrahydro-2H-pyran-3-ylmethyl)-1H-benzimidazole-6-carboxylic acid] | 6.36 | 86
8 | CN1CC(Cn2c(CN3CCC(c4cccc(OCc5ccc(Cl)cc5F)n4)CC3)nc3ccc(C(=O)O)cc32)CC1=O (stereo not drawn) [Compound 317B, 2-[(4-{6-[(4-chloro-2-fluorobenzyl)oxy]pyridin-2-yl}piperidin-1-yl)methyl]-1-[(1-methyl-5-oxopyrrolidin-3-yl)methyl]-1H-benzimidazole-6-carboxylic acid] | 6.30 | 69
9 | Cn1cc(Cn2c(CN3CCC(c4cccc(OCc5ccc(Cl)cc5F)n4)CC3)nc3ccc(C(=O)O)cc32)cn1 [Compound 318B, 2-[(4-{6-[(4-chloro-2-fluorobenzyl)oxy]pyridin-2-yl}piperidin-1-yl)methyl]-1-[(1-methyl-1H-pyrazol-4-yl)methyl]-1H-benzimidazole-6-carboxylic acid] | 6.28 | –
10 | Cn1cc(CCn2c(CN3CCC(c4cccc(OCc5ccc(Cl)cc5F)n4)CC3)nc3ccc(C(=O)O)cc32)nn1 [Compound 319B, 2-[(4-{6-[(4-chloro-2-fluorobenzyl)oxy]pyridin-2-yl}piperidin-1-yl)methyl]-1-[2-(1-methyl-1H-1,2,3-triazol-4-yl)ethyl]-1H-benzimidazole-6-carboxylicacid] | 5.96 | 47
11 | COC[C@H](C)n1c(CN2CCC(c3cccc(OCc4ccc(Cl)cc4F)n3)CC2)nc2ccc(C(=O)O)cc21 [Compound 320B, 2-[(4-{6-[(4-chloro-2-fluorobenzyl)oxy]pyridin-2-yl}piperidin-1-yl)methyl]-1-[(2S)-1-methoxypropan-2-yl]-1H-benzimidazole-6-carboxylic acid] | 5.96 | 65
12 | COC[C@@H](C)n1c(CN2CCC(c3cccc(OCc4ccc(Cl)cc4F)n3)CC2)nc2ccc(C(=O)O)cc21 [Compound 321B, 2-[(4-{6-[(4-chloro-2-fluorobenzyl)oxy]pyridin-2-yl}piperidin-1-yl)methyl]-1-[(2R)-1-methoxypropan-2-yl]-1H-benzimidazole-6-carboxylic acid] | 5.96 | 81
13 | Cc1cc(Cn2c(CN3CCC(c4cccc(OCc5ccc(Cl)cc5F)n4)CC3)nc3ccc(C(=O)O)cc32)on1 [Compound 322B, 2-[(4-{6-[(4-chloro-2-fluorobenzyl)oxy]pyridin-2-yl}piperidin-1-yl)methyl]-1-[(3-methyl-1,2-oxazol-5-yl)methyl]-1H-benzimidazole-6-carboxylic acid] | 5.85 | 97
14 | O=C(O)c1ccc2nc(CN3CCC(c4cccc(OCc5ccc(Cl)cc5F)n4)CC3)n(CC3CCCCO3)c2c1 (stereo not drawn) [Compound 323B, 2-[(4-{6-[(4-chloro-2-fluorobenzyl)oxy]pyridin-2-yl}piperidin-1-yl)methyl]-1-(tetrahydro-2H-pyran-2-ylmethyl)-1H-benzimidazole-6-carboxylic acid] | 5.80 | 80
15 | O=C(O)c1ccc2nc(CN3CCC(c4cccc(OCc5ccc(Cl)cc5F)n4)CC3)n(CC3CCOCC3)c2c1 [Compound 324B, 2-[(4-{6-[(4-chloro-2-fluorobenzyl)oxy]pyridin-2-yl}piperidin-1-yl)methyl]-1-(tetrahydro-2H-pyran-4-ylmethyl)-1H-benzimidazole-6-carboxylic acid] | 5.72 | 79
16 | O=C(O)c1ccc2nc(CN3CCC(c4cccc(OCc5ccc(Cl)cc5F)n4)CC3)n(CCN3CCOCC3)c2c1 [Compound 325B, 2-[(4-{6-[(4-chloro-2-fluorobenzyl)oxy]pyridin-2-yl}piperidin-1-yl)methyl]-1-[2-(morpholin-4-yl)ethyl]-1H-benzimidazole-6-carboxylic acid] | 5.66 | 87
17 | O=C(O)c1ccc2nc(CN3CCC(c4cccc(OCc5ccc(Cl)cc5F)n4)CC3)n(CC3CC(F)(F)C3)c2c1 [Compound 326B, 2-[(4-{6-[(4-chloro-2-fluorobenzyl)oxy]pyridin-2-yl}piperidin-1-yl)methyl]-1-[(3,3-difluorocyclobutyl)methyl]-1H-benzimidazole-6-carboxylic acid] | 5.60 | 71
18 | CC(c1nncn1C)n1c(CN2CCC(c3cccc(OCc4ccc(Cl)cc4F)n3)CC2)nc2ccc(C(=O)O)cc21 (stereo not drawn) [Compound 327B, 2-[(4-{6-[(4-chloro-2-fluorobenzyl)oxy]pyridin-2-yl}piperidin-1-yl)methyl]-1-[1-(4-methyl-4H-1,2,4-triazol-3-yl)ethyl]-1H-benzimidazole-6-carboxylic acid] | 5.54 | 88
19 | Cn1cnnc1CCn1c(CN2CCC(c3cccc(OCc4ccc(Cl)cc4F)n3)CC2)nc2ccc(C(=O)O)cc21 [Compound 328B, 2-[(4-{6-[(4-chloro-2-fluorobenzyl)oxy]pyridin-2-yl}piperidin-1-yl)methyl]-1-[2-(4-methyl-4H-1,2,4-triazol-3-yl)ethyl]-1H-benzimidazole-6-carboxylic acid] | 5.51 | 51
20 | CCN1CCC[C@@H]1Cn1c(CN2CCC(c3cccc(OCc4ccc(Cl)cc4F)n3)CC2)nc2ccc(C(=O)O)cc21 [Compound 329B, 2-[(4-{6-[(4-chloro-2-fluorobenzyl)oxy]pyridin-2-yl}piperidin-1-yl)methyl]-1-{[(2R)-1-ethylpyrrolidin-2-yl]methyl}-1H-benzimidazole-6-carboxylic acid] | 5.40 | 91
21 | Cc1nc(Cn2c(CN3CCC(c4cccc(OCc5ccc(Cl)cc5F)n4)CC3)nc3ccc(C(=O)O)cc32)c(C)o1 [Compound 330B, 2-[(4-{6-[(4-chloro-2-fluorobenzyl)oxy]pyridin-2-yl}piperidin-1-yl)methyl]-1-[(2,5-dimethyl-1,3-oxazol-4-yl)methyl]-1H-benzimidazole-6-carboxylic acid] | 5.03 | 100
22 | COCc1cc(Cn2c(CN3CCC(c4cccc(OCc5ccc(Cl)cc5F)n4)CC3)nc3ccc(C(=O)O)cc32)[nH]n1 [Compound 337B, 2-[(4-{6-[(4-chloro-2-fluorobenzyl)oxy]pyridin-2-yl}piperidin-1-yl)methyl]-1-{[3-(methoxymethyl)-1H-pyrazol-5-yl]methyl}-1H-benzimidazole-6-carboxylic acid] | 6.25 | 72
23 | CN1CCOC(Cn2c(CN3CCC(c4cccc(OCc5ccc(Cl)cc5F)n4)CC3)nc3ccc(C(=O)O)cc32)C1 (stereo not drawn) [Compound 338B, 2-[(4-{6-[(4-chloro-2-fluorobenzyl)oxy]pyridin-2-yl}piperidin-1-yl)methyl]-1-[(4-methylmorpholin-2-yl)methyl]-1H-benzimidazole-6-carboxylic acid] | < 4.70 | –
24 | O=C(O)c1ccc2nc(CN3CCC(c4cccc(OCc5ccc(Cl)cc5F)n4)CC3)n(CCC3CCOCC3)c2c1 [Compound 340B, 2-[(4-{6-[(4-chloro-2-fluorobenzyl)oxy]pyridin-2-yl}piperidin-1-yl)methyl]-1-[2-(tetrahydro-2H-pyran-4-yl)ethyl]-1H-benzimidazole-6-carboxylic acid] | 6.22 | 70
25 | Cc1n[nH]c(CCn2c(CN3CCC(c4cccc(OCc5ccc(Cl)cc5F)n4)CC3)nc3ccc(C(=O)O)cc32)n1 [Compound 341B, 2-[(4-{6-[(4-chloro-2-fluorobenzyl)oxy]pyridin-2-yl}piperidin-1-yl)methyl]-1-[2-(3-methyl-1H-1,2,4-triazol-5-yl)ethyl]-1H-benzimidazole-6-carboxylic acid] | 6.60 | 64
